In PMC6585649 (Clinical Pharmacology in Drug Development, 2018):
Like-named read-outs stand apart in the source and are kept apart here.

How the values were obtained:
Multiple-dose = assay type: in vivo, human (healthy subjects); settings: for AUC(0-t) / Cmax / half-life at 7 days: human, plasma, oral; for AUC(0-t): AUC0–24, steady state (day 7); for Cmax: steady state (day 7); for half-life at 7 days: t1/2, steady state; for Cmin: steady state (day 7, 24-hour period)
[1] = 6 and 12 mg twice daily, IR formulation, background methotrexate; cited from earlier work
[2] = cited from earlier work
[3] = assay type: in vivo, human (healthy subjects); settings: for AUC(0-t) / AUC(0-inf) / Cmax / half-life: human, plasma, oral; for AUC(0-t): AUCt
[4] = cited from earlier work; remark: listed apart in the source
CYP2D6 = settings: in vitro; cited from earlier work
[5] = assay type: in vivo; settings: human, not told, po
cytochrome P450 (CYP) 3A = settings: in vitro; cited from earlier work
[6] = cited from earlier work; remark: listed apart in the source
[7] = 6 mg, 6 mg twice-daily IR, fasting, n = 11, mean ± SD
[8] = 12 mg, 12 mg twice-daily IR, fasting, n = 11, mean ± SD
[9] = 15 mg, 15 mg once-daily ER, fasting, n = 12, mean ± SD
[10] = 15 mg, 15 mg once-daily ER, nonfasting, n = 12, mean ± SD
[11] = 30 mg, 30 mg once-daily ER, fasting, n = 11, mean ± SD
[12] = 30 mg, 30 mg once-daily ER, nonfasting, n = 12, mean ± SD
[13] = 12 mg, single 12 mg IR, fasting, n = 11, mean ± SD
[14] = 15 mg, single 15 mg ER, fasting, n = 11, mean ± SD
[15] = 24 mg, single 24 mg IR, fasting, n = 12, mean ± SD
[16] = 30 mg, single 30 mg ER after high-fat breakfast, n = 12, mean ± SD
[17] = 30 mg, single 30 mg ER, fasting, n = 12, mean ± SD

In the case of `CC[C@@H]1CN(C(=O)NCC(F)(F)F)C[C@@H]1c1cnc2cnc3[nH]ccc3n12` [Upadacitinib], the “difference of central values for Cmax and Cmin, ER once daily vs IR twice daily” value (Multiple-dose; 15 and 30 mg once daily vs 6 and 12 mg twice daily, fasting, steady state) is reported as no more than 13%, the AUC(0-t) (Multiple-dose; [7]) is reported as 288 ± 63.5 ng·h/mL and the Cmax (Multiple-dose; [7]) is reported as 33.9 ± 8.8 ng/mL. For the same molecule, the half-life at 7 days (Multiple-dose; [7]) was 24.5 ± 18.1 h, the AUC(0-t) (Multiple-dose; [8]) was 534 ± 97.8 ng·h/mL and the Cmax (Multiple-dose; [8]) was 73.9 ± 14.2 ng/mL. It also gave a half-life at 7 days (Multiple-dose; [8]) of 11.5 ± 9.2 h, an AUC(0-t) (Multiple-dose; [9]) of 279 ± 71.4 ng·h/mL and an AUC(0-t) (Multiple-dose; [10]) of 317 ± 68.1 ng·h/mL. The Cmax (Multiple-dose; [9]) was 31.9 ± 11.2 ng/mL, the Cmax (Multiple-dose; [10]) was 36 ± 8.8 ng/mL and the half-life at 7 days (Multiple-dose; [9]) was 16.9 ± 12 h. It also gave a half-life at 7 days (Multiple-dose; [10]) of 15.1 ± 10.1 h, an AUC(0-t) (Multiple-dose; [11]) of 525 ± 123 ng·h/mL and an AUC(0-t) (Multiple-dose; [12]) of 582 ± 172 ng·h/mL. For the same molecule, the Cmax (Multiple-dose; [11]) was 68.2 ± 20.5 ng/mL, the Cmax (Multiple-dose; [12]) was 79.5 ± 31.8 ng/mL and the half-life at 7 days (Multiple-dose; [11]) was 22.9 ± 21.1 h. The “steady state achieved by day” value (Multiple-dose; once-daily dosing of ER formulation, predose concentrations) was no more than 4 days, the Cmin (Multiple-dose; 6 mg twice-daily IR, fasting, n = 11, mean ± SD) was 2.7 ± 0.6 and the Cmin (Multiple-dose; 12 mg twice-daily IR, fasting, n = 11, mean ± SD) was 3.8 ± 2.2. For the same molecule, the Cmin (Multiple-dose; 15 mg once-daily ER, fasting, n = 12, mean ± SD) was 3.1 ± 1.1, the Cmin (Multiple-dose; 15 mg once-daily ER, nonfasting, n = 12, mean ± SD) was 2.8 ± 1.2 and the Cmin (Multiple-dose; 30 mg once-daily ER, fasting, n = 11, mean ± SD) was 3.8 ± 1.6. For the same molecule, the Cmin (Multiple-dose; 30 mg once-daily ER, nonfasting, n = 12, mean ± SD) was 4.6 ± 1.8, the “efficacy in subjects with RA” value [1] was “maximal efficacy” and the “effect of CYP2D6 metabolic phenotype on apparent oral clearance” value [2] was “no effect”. For the same molecule, the “residual error in upadacitinib concentrations” value [2] was 31%, the “intersubject variability of apparent central volume of distribution” value ([2]; healthy subjects) was 14% and the “intersubject variability of apparent oral clearance” value ([2]; healthy subjects) was 16%. For the same molecule, the “higher AUC compared with subjects with normal renal function” value ([2]; mild renal impairment, estimated) was 16%, the “higher AUC compared with subjects with normal renal function” value ([2]; moderate renal impairment, estimated) was 32% and the “apparent oral clearance lower in RA patients compared with healthy subjects” value ([2]; population pharmacokinetic analyses, estimated) was 24%. For the same molecule, the “intersubject variability of apparent central volume of distribution” value ([2]; subjects with RA) was 27%, the “intersubject variability of apparent oral clearance” value ([2]; subjects with RA) was 26% and the “increase in AUC and Cmax after a high-fat meal compared with fasting” value ([3]; ER formulation) was roughly 20%. It also gave an AUC(0-t) [3, 13] of 231 ± 34.5 ng·h/mL, an AUC(0-inf) [3, 13] of 234 ± 34.6 ng·h/mL and a Cmax [3, 13] of 64.6 ± 10.3 ng/mL. The half-life ([3]; 12 mg, t1/2, single 12 mg IR, fasting, n = 11, mean ± SD) was 18.3 ± 13.3 h, the AUC(0-t) [3, 14] was 227 ± 60 ng·h/mL and the AUC(0-inf) [3, 14] was 242 ± 63.6 ng·h/mL. The half-life ([3]; 15 mg, t1/2, single 15 mg ER, fasting, n = 11, mean ± SD) was 21.9 ± 23.1 h, the AUC(0-inf) [3, 15] was 524 ± 133 ng·h/mL and the Cmax [3, 15] was 176 ± 65.6 ng/mL. The half-life ([3]; 24 mg, t1/2, single 24 mg IR, fasting, n = 12, mean ± SD) was 15.3 ± 13.6 h, the AUC(0-t) [3, 16] was 564 ± 145 ng·h/mL and the AUC(0-t) [3, 17] was 477 ± 130 ng·h/mL. For the same molecule, the AUC(0-inf) [3, 17] was 491 ± 133 ng·h/mL, the Cmax [3, 16] was 76.8 ± 29.6 ng/mL and the Cmax [3, 17] was 63.7 ± 21.1 ng/mL. The half-life ([3]; 30 mg, t1/2, single 30 mg ER after high-fat breakfast, n = 12, mean ± SD) was 15.9 ± 11 h, the half-life ([3]; 30 mg, t1/2, single 30 mg ER, fasting, n = 12, mean ± SD) was 18.1 ± 14.5 h and the “dose eliminated unchanged in urine” value ([4]; IR formulation) was “approximately 20%”. For the same molecule, the “time to maximum plasma concentration” value ([4]; IR formulation) was no more than 2 h, the accumulation in plasma ([4]; twice-daily dosing of the IR formulation) was “no significant accumulation” and the “contribution of CYP2D6 to metabolism” value (CYP2D6) was “minor contribution”. For the same molecule, the bioavailability [5] was 70 to 80%, the “substrate of CYP3A” value (cytochrome P450 (CYP) 3A) was “nonsensitive substrate” and the “decrease in upadacitinib AUC with rifampin” value ([6]; CYP inducer rifampin) was 60%. The “decrease of Cmax by food” value ([6]; IR formulation) was “approximately 20%”, the “impact of food on AUC” value ([6]; IR formulation) was “no impact” and the “increase in upadacitinib AUC with ketoconazole” value ([6]; strong CYP3A inhibitor ketoconazole) was 75%.
